The source made the active and inactive calls.
Experiments:
[1] = HEK293T cytotoxicity, dose response, cytotoxicity control for miR-122 modulator project, cell-based, activator set, cherry-pick (AID 720690); assay type: functional;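 further: HEK293T human cells scored for general mammalian cytotoxicity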
[2] = P. falciparum Dd2 growth inhibitors, dose response, SYBR Green, dry powder samples, set 9 (AID 1159568); assay type: functional, cell-based
[3] = miR-122 activators in hepatoma reporter cells, dose response, cell-based, Huh7 psiCHECK-miR122, Renilla luciferase, cherry-picked (AID 651956); assay type: functional;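 further: huh7 hepatoma cells stably carrying a psiCHECK-2 miR-122 sensor plasmid; renilla luciferase signal reporting endogenous miR-122 activity after 48 h compound exposure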
[4] = HEK293T cytotoxicity, dose response, cytotoxicity control for miR-122 modulator project, cell-based, inhibitor set, cherry-pick, set 2 (AID 720697); assay type: functional
[5] = NIH:OVCAR-3 ovarian cancer cell cytotoxicity, dose response, PAX8 inhibitor project, plate reader, dry powder samples (AID 743044); assay type: functional, cell-based
[6] = cytotoxicity in OVCAR8 ovarian cancer cells, dose response, PAX8 project, cell-based, plate reader, dry powder samples (AID 743197); assay type: functional; conditions: OVCAR-8
[7] = IOSE-T80 ovarian epithelial cell cytotoxicity, dose response, cytotoxicity control for PAX8 inhibitor project, plate reader, dry powder samples (AID 743045); assay type: functional, cell-based
[8] = A2780 ovarian cancer cell cytotoxicity, dose response, cytotoxicity control, plate reader, dry powder samples (AID 743046); assay type: functional, cell-based
Paired box protein Pax-8 = Paired box protein Pax-8 (Homo sapiens, UniProt Q06710); assay: inhibitors of PAX8-driven TPO luciferase reporter, dose response, RMG-I cells, cherry-pick (AID 687027); assay type: functional, cell-based;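 further: luciferase reporter driven by Pax8 target thyroperoxidase promoter measured by SteadyGlo luminescence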
[9] = IGROV1 ovarian cancer cell cytotoxicity, dose response, PAX8 inhibitor project, plate reader, dry powder samples (AID 743043); assay type: functional, cell-based; conditions: IGROV-1
[10] = HepG2 cell cytotoxicity, dose response, cytotoxicity control, cherry-picked samples (AID 1159577); assay type: functional, cell-based
[11] = P. falciparum Dd2 growth inhibitors, dose response, SYBR Green, cherry-picked samples (AID 1159567); assay type: functional, cell-based
[12] = target: T1, Oxysterols receptor LXR-beta (Homo sapiens, UniProt P55055); assay: LXR agonists, Gal4 luciferase reporter, dose response, counter-screen for ssDAF-12 agonist project, cell-based, luminescence, HEK293, S. stercoralis campaign (AID 720737); assay type: functional; conditions: read-out: IC50 (the source's name)
T1 sequence (P55055 whole entry): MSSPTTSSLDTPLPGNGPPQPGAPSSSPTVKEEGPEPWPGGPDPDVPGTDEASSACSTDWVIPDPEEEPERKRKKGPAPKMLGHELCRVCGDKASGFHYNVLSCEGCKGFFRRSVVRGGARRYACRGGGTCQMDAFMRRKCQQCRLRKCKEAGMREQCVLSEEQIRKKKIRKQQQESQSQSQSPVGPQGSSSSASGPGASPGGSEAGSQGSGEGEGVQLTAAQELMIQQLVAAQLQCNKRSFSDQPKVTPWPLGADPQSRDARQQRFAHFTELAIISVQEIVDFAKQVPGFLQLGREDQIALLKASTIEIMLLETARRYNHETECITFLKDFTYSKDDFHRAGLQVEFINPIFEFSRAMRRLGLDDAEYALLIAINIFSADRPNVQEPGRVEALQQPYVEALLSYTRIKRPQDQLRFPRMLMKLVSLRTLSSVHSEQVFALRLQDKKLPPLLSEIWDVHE

[13] = Luminescence-based cell-based high throughput dose response assay to identify activators of the DAF-12 from the parasite S. stercoralis (ssDAF-12).; assay type: functional
[14] = P. falciparum ATP4 D1247Y mutant growth inhibitors, dose response, NITD609-resistant line, SYBR Green, dry powder (AID 1159571); assay type: functional, cell-based;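 further: parasites synchronized at ring stage by sorbitol before testing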
[15] = P. falciparum Dd2 growth inhibitors, dose response, SYBR Green, dry powder samples (AID 1159566); assay type: functional, cell-based;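 further: potency for growth inhibition with lower SYBR green DNA signal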
[16] = P. falciparum 3D7-ScDHODH growth inhibitors, dose response, SYBR Green, dry powder samples (AID 1159570); assay type: functional, cell-based;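 further: parasite growth measured after 72 hours of compound exposure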
[17] = SNU-C1 cell viability reduction, dose response, CellTiter-Glo luminescence (AID 1117323); assay type: functional, cell-based
[18] = cytotoxicity toward HCT116 cells – cell-based, CellTiter-Glo luminescence, IC50, dose response (AID 1117332); assay type: functional; conditions: HCT-116
[19] = cytotoxicity toward Colo320 cells – cell-based, CellTiter-Glo luminescence, IC50, dose response (AID 1117334); assay type: functional; conditions: COLO 320
[20] = cytotoxicity toward HT-29 cells – cell-based, CellTiter-Glo luminescence, IC50, dose response (AID 1117330); assay type: functional
[21] = Concentration-dependent survival of SW480 colon cancer line, luminescence detection with CellTiter-Glo, half-maximal inhibitory concentration (AID 1117338); assay type: functional
[22] = RKO cell viability reduction, dose response, CellTiter-Glo luminescence (AID 1117322); assay type: functional
[23] = CellTiter-Glo luminescent dose response of DLD-1 viability loss (AID 1117352); assay type: functional

Sequence of Paired box protein Pax-8 (Q06710 whole entry): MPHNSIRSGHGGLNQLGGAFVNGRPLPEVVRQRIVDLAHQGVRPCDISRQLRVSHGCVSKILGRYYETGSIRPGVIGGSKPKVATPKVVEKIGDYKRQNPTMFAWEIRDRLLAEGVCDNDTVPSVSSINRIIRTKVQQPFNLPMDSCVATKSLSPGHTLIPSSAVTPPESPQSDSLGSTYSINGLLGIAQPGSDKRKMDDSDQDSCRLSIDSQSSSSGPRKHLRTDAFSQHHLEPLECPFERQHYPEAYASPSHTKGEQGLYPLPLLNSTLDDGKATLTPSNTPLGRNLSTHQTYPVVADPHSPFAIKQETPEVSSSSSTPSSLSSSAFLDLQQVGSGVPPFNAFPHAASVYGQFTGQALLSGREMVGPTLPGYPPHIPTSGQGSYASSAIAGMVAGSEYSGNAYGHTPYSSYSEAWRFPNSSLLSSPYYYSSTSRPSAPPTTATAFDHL

CN1C(=O)c2cc(NC(=O)c3ccc(C(F)(F)F)cc3)ccc2OC[C@H]2O[C@@H](CC(=O)NCc3ccc4c(c3)OCO4)CC[C@H]21
active: AC50 [1] 16.2 µM | AC50 [2] 17.8 µM | AC50 [3] 10.9 µM | AC50 [4] 7.69 µM

C[C@H]1CN([C@@H](C)CO)S(=O)(=O)c2ccc(C#Cc3ccncc3)cc2O[C@@H]1CN(C)C(=O)Nc1ccc2c(c1)OCO2
active: AC50 [5] 1.48 µM | AC50 [6] 1.89 µM | AC50 [7] 3.88 µM | AC50 [8] 1.49 µM | AC50 (Paired box protein Pax-8) 0.264 µM | AC50 [9] 1.23 µM

COc1ccc(C#Cc2ccc([C@@H]3[C@H](CO)N4CCCCN(C(=O)Nc5ccc(F)cc5)C[C@@H]34)cc2)cc1
active: AC50 [6] 41.2 µM | AC50 [8] 13.9 µM | AC50 (Paired box protein Pax-8) 15.5 µM

COc1ccccc1NC(=O)N1CCCCN2[C@@H](CO)[C@@H](c3ccc(-c4cccc(C)c4)cc3)[C@@H]2C1
active: AC50 [10] 11.2 µM | AC50 [5] 31.6 µM | AC50 [6] 68.6 µM | AC50 [7] 67.5 µM | AC50 [11] 1.43 µM | AC50 (Paired box protein Pax-8) 13.2 µM | AC50 [9] 28.4 µM

CC1(C)NC(=S)C(C)(C)N1N=O
inactive: EC50 [12] > 67.5 µM | IC50 [13] > 67.5 µM

COc1ccc(NC(=O)N2CC(=O)N3[C@@H](CO)[C@H](c4ccc(C#CCC5CCCC5)cc4)[C@@H]3C2)cc1
active: AC50 [14] 2.84 µM | AC50 [15] 2.17 µM | AC50 [11] 3.79 µM | AC50 [16] 2.19 µM
inactive: AC50 [10] > 42 µM

OC[C@H]1[C@@H](c2ccc(-c3cccnc3)cc2)[C@@H]2CN(CC3CC3)CCCCN12
active: AC50 [14] 2.65 µM | AC50 [15] 1.8 µM | AC50 [11] 2.12 µM | AC50 [16] 1.9 µM

CCCNC(=O)N1[C@H](C#N)[C@H](c2ccccc2-c2cccc(C)c2)[C@@H]1CO
active: AC50 [2] 7.01 µM

CCOC(=O)Oc1ccc(CCNC(=O)[C@H](CCSC)NC(C)=O)cc1OC(=O)OCC [DOCARPAMINE]
inactive: IC50 [17] > 20 µM | IC50 [18] > 20 µM | IC50 [19] > 20 µM | IC50 [20] > 20 µM | IC50 [21] > 20 µM | IC50 [22] > 20 µM | IC50 [23] > 20 µM

Cc1c(NC(=O)c2cccnc2)c(=O)n(-c2ccccc2)n1C [NIFENAZONE]
inactive: IC50 [17] > 20 µM | IC50 [18] > 20 µM | IC50 [19] > 20 µM | IC50 [20] > 20 µM | IC50 [21] > 20 µM | IC50 [22] > 20 µM | IC50 [23] > 20 µM
